Laboratory results reported in article PMC4007625, “A phase I study of AST1306, a novel irreversible EGFR and HER2 kinase inhibitor, in patients with advanced solid tumors” (Journal of Hematology & Oncology, 2014).

What was measured:
[1] = Phase I dose escalation: safety, tolerability, DLT and MTD (CTC-AE 4.03); type: in vivo
Protocol: This was the first-in-human phase I dose-escalation study of AST1306 for patients with advanced solid tumors. AST1306 was orally administered without food for one day followed by two days off to evaluate single dose PK profiles. After that, it was continuously administered for 21 days and two days off to assess multiple dose PK profiles and safety. […] Three times daily in three dose levels (800 mg TID, 1000 mg TID and 1200 mg TID) were explored subsequently. Treatment was then repeated at the same dose level in 28-day cycles until unacceptable toxicities, disease progression or the patient’s withdrew from the study. PK extension study was performed to enroll additional patients up to at least eight patients per dose cohort in three dose levels (MTD, one or two doses level lower than the MTD) for further evaluation of PK profiles.
Safety and tolerability were evaluated and assessed by investigators throughout the study and up to 14 days after the final dose of AST1306 according to Common Terminology Criteria for Adverse Events (CTC-AE) version 4.03. Laboratory evaluations and electrocardiogram were conducted at screening; every week of first and second cycles; every two weeks of third cycle and every four weeks of subsequent cycles. AEs assessment, vital signs, physical examinations and echocardiography were performed.
A modified Fibonacci 3 plus 3 dose-escalation design was employed. Tolerability was evaluated according to the type and frequency of DLTs observed from single-day-dose administration until day 21 of the first cycle of continuous dosing. DLTs were defined as follows: grade ≥ 3 non-hematologic toxicity (except nausea, vomiting and diarrhea); grade ≥ 3 nausea, vomiting or diarrhea uncontrollable with standard supportive care; grade 4 neutropenia or febrile neutropenia; and grade 4 thrombocytopenia or bleeding requiring a platelet transfusion. If two or more patients experienced DLTs in three to six patients for each cohort, dose escalation was terminated and the dose level below was defined as the MTD.
Dose interruptions were permitted for no more than 14 days for patients experiencing DLTs in the first cycle or intolerable toxicities in the subsequent cycles, with treatment resumed at the next lower dose level upon adequate recovery (grade ≤ 1). More than two dose level reductions were not allowed.
Patients in the PK extension study and food-effect study were also included to evaluate safety further.

advanced solid tumors = test: Antitumor activity by RECIST 1.0; type: in vivo, human
Protocol: Antitumor activity was assessed by tumor measurements according to RECIST 1.0 and performed at 8-week intervals. The primary efficacy endpoint was progression free survival (PFS), which was defined as the time from the first administration until disease progression or death. Overall survival (OS) and response rate were also assessed. Clinical benefit rate was measured and defined as the proportion of patients with complete response, partial response and stable disease (SD) ≥ 6 months.

## C=CC(=O)Nc1ccc2ncnc(Nc3ccc(OCc4cccc(F)c4)c(Cl)c3)c2c1 [AST1306]
[1]; TID, continuous-dosing schedule, oral
  MTD: 1000 mg
[1]; human, in vivo
  Anorexia grade 3, treatment-related AE, patients: 0
  Fatigue grade 3, treatment-related AE, % of patients: 0%
  Fatigue grade 3, treatment-related AE, patients: 0
  Hand-foot syndrome grade 3, treatment-related AE, % of patients: 0%
  Hand-foot syndrome grade 3, treatment-related AE, patients: 0
  Proteinuria grade 3, treatment-related AE, % of patients: 0%
  Proteinuria grade 3, treatment-related AE, patients: 0
  Vomiting grade 3, treatment-related AE, % of patients: 0%
  Vomiting grade 3, treatment-related AE, patients: 0
  discontinuation from treatment due to diarrhea, % of patients: 7%
  discontinuation from treatment due to diarrhea, patients: 5
  discontinuation from treatment due to hypokalemia, patients: 1
  grade 3 drug-related abdominal pain, % of patients: 1.4%
  grade 3 drug-related abdominal pain, patients: 1
  grade 3 drug-related anemia, % of patients: 1.4%
  grade 3 drug-related anemia, patients: 1
  grade 3 drug-related diarrhea, % of patients: 32.4%
  grade 3 drug-related diarrhea, patients: 23
  grade 3 drug-related elevated ALT or AST, % of patients: 4.2%
  grade 3 drug-related elevated ALT or AST, patients: 3
  grade 3 drug-related hypokalemia, % of patients: 1.4%
  grade 3 drug-related hypokalemia, patients: 1
  grade 3 drug-related rash, % of patients: 1.4%
  grade 3 drug-related rash, patients: 1
  grade 3 study drug-related AEs, % of patients: 39.4%
  grade 3 study drug-related AEs, patients: 28
  grade 4 to 5 AEs: no observed grade 4 to 5 AEs
  patients with serious AEs (SAE): 8
  treatment-related diarrhea, % of patients: 85.9%
  treatment-related diarrhea, patients: 61
  treatment-related fatigue, % of patients: 19.7%
  treatment-related fatigue, patients: 14
  treatment-related rash, % of patients: 16.9%
  treatment-related rash, patients: 12
[1]; human, in vivo, 21 days
  patients with DLT (grade 3 diarrhea): 5
[1]; human, in vivo, po, 21 days
  recommended phase II dose (RP2D): 1000 mg
[1]; in vivo
  decline in LVEF: no significant decline in LVEF
  patients with dose reductions (all due to diarrhea): Seven
  patients with study drug-related AEs: Sixty-eight
Advanced solid tumors; 12 NSCLC patients
  median OS: not yet been reached
  median PFS: 3.6 months
Advanced solid tumors; 17 breast cancer patients
  median OS: 17.7 (95% CI, 16.1–19.3) months
  median PFS: 5.5 (95% CI, 3.2–7.9) months
Advanced solid tumors; 55 evaluable patients
  confirmed PR, % of patients: 12.7%
  confirmed partial responses, patients: 7
  stable disease ≥ 6 months, patients: 7
Advanced solid tumors; NSCLC, 12 evaluable
  confirmed PR, patients: 1
Advanced solid tumors; breast cancer, 17 evaluable, all responders HER2 positive
  confirmed PR, patients: 5
Advanced solid tumors; gastric cancer
  confirmed PR, patients: 1
